Measurements reported in PubChem BioAssay (NCI).
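Tested at 5 concentrations; 48 h exposure; 96-well plates; endpoints linearly interpolated, else capped at highest concentration. Abbreviation: GI50, concentration required for 50% inhibition of growth. TGI: total growth inhibition.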

Columns and labels:
Test in all cases: DTP human tumour cell line panel, 48 h
NCI-H226 lung = test system: NCI-H226 lung
U251 CNS = test system: U251 CNS
HCT-15 colon = test system: HCT-15 colon
HOP-62 NSCLC = test system: HOP-62 NSCLC
EKVX NSCLC = test system: EKVX NSCLC
SK-OV-3 ovarian = test system: SK-OV-3 ovarian
M14 melanoma = test system: M14 melanoma
SK-MEL-5 melanoma = test system: SK-MEL-5 melanoma
ACHN renal = test system: ACHN renal
SW-620 colon = test system: SW-620 colon
HT29 colon = test system: HT29 colon
UACC-257 melanoma = test system: UACC-257 melanoma
786-0 renal = test system: 786-0 renal
OVCAR-5 ovarian = test system: OVCAR-5 ovarian
KM12 colon = test system: KM12 colon
CAKI-1 renal = test system: CAKI-1 renal
UO-31 renal = test system: UO-31 renal
SK-MEL-2 melanoma = test system: SK-MEL-2 melanoma
HS 578T breast = test system: HS 578T breast
SF-539 CNS = test system: SF-539 CNS
COLO 205 colon = test system: COLO 205 colon
NCI-H23 lung = test system: NCI-H23 lung
OVCAR-4 ovarian = test system: OVCAR-4 ovarian
SNB-75 CNS = test system: SNB-75 CNS
NCI-H460 lung = test system: NCI-H460 lung
K-562 leukemia = test system: K-562 leukemia
OVCAR-8 ovarian = test system: OVCAR-8 ovarian
MOLT-4 leukemia = test system: MOLT-4 leukemia
MALME-3M melanoma = test system: MALME-3M melanoma
T-47D breast = test system: T-47D breast
BT-549 breast = test system: BT-549 breast
UACC-62 melanoma = test system: UACC-62 melanoma
HCC-2998 colon = test system: HCC-2998 colon
MDA-MB-231 breast = test system: MDA-MB-231 breast
RPMI-8226 leukemia = test system: RPMI-8226 leukemia
SF-268 CNS = test system: SF-268 CNS
LOX IMVI melanoma = test system: LOX IMVI melanoma
HCT-116 colon = test system: HCT-116 colon
MDA-MB-435 = test system: MDA-MB-435
A498 renal = test system: A498 renal
RXF 393 renal = test system: RXF 393 renal
TK-10 renal = test system: TK-10 renal
DU-145 prostate = test system: DU-145 prostate
OVCAR-3 ovarian = test system: OVCAR-3 ovarian
A549 NSCLC = test system: A549 NSCLC
SK-MEL-28 melanoma = test system: SK-MEL-28 melanoma
SF-295 CNS = test system: SF-295 CNS
HOP-92 NSCLC = test system: HOP-92 NSCLC
MCF7 breast = test system: MCF7 breast
CCRF-CEM leukemia = test system: CCRF-CEM leukemia
PC-3 prostate = test system: PC-3 prostate
IGROV1 ovarian = test system: IGROV1 ovarian
NCI-H522 lung = test system: NCI-H522 lung
SN12C renal = test system: SN12C renal
SNB-19 CNS = test system: SNB-19 CNS

SMILES: O=C(NN1C(=O)CSC12CCCC2)C(O)c1ccccc1 (stereo not given)
- GI50 (NCI-H226 lung): > 100 µM
- TGI (NCI-H226 lung): > 100 µM
- GI50 (U251 CNS): > 100 µM
- TGI (U251 CNS): > 100 µM
- GI50 (HCT-15 colon): > 100 µM
- TGI (HCT-15 colon): > 100 µM
- GI50 (HOP-62 NSCLC): > 100 µM
- TGI (HOP-62 NSCLC): > 100 µM
- GI50 (EKVX NSCLC): > 100 µM
- TGI (EKVX NSCLC): > 100 µM
- GI50 (SK-OV-3 ovarian): > 100 µM
- TGI (SK-OV-3 ovarian): > 100 µM
- GI50 (M14 melanoma): > 100 µM
- TGI (M14 melanoma): > 100 µM
- GI50 (SK-MEL-5 melanoma): > 100 µM
- TGI (SK-MEL-5 melanoma): > 100 µM
- GI50 (ACHN renal): > 100 µM
- TGI (ACHN renal): > 100 µM
- GI50 (SW-620 colon): > 100 µM
- TGI (SW-620 colon): > 100 µM
- GI50 (HT29 colon): > 100 µM
- TGI (HT29 colon): > 100 µM
- GI50 (UACC-257 melanoma): > 100 µM
- TGI (UACC-257 melanoma): > 100 µM
- GI50 (786-0 renal): > 100 µM
- TGI (786-0 renal): > 100 µM
- GI50 (OVCAR-5 ovarian): > 100 µM
- TGI (OVCAR-5 ovarian): > 100 µM
- GI50 (KM12 colon): > 100 µM
- TGI (KM12 colon): > 100 µM
- GI50 (CAKI-1 renal): > 100 µM
- TGI (CAKI-1 renal): > 100 µM
- GI50 (UO-31 renal): > 100 µM
- TGI (UO-31 renal): > 100 µM
- GI50 (SK-MEL-2 melanoma): > 100 µM
- TGI (SK-MEL-2 melanoma): > 100 µM
- GI50 (HS 578T breast): > 100 µM
- TGI (HS 578T breast): > 100 µM
- GI50 (SF-539 CNS): > 100 µM
- TGI (SF-539 CNS): > 100 µM
- GI50 (COLO 205 colon): > 100 µM
- TGI (COLO 205 colon): > 100 µM
- GI50 (NCI-H23 lung): > 100 µM
- TGI (NCI-H23 lung): > 100 µM
- GI50 (OVCAR-4 ovarian): > 100 µM
- TGI (OVCAR-4 ovarian): > 100 µM
- GI50 (SNB-75 CNS): > 100 µM
- TGI (SNB-75 CNS): > 100 µM
- GI50 (NCI-H460 lung): > 100 µM
- TGI (NCI-H460 lung): > 100 µM
- GI50 (K-562 leukemia): > 100 µM
- TGI (K-562 leukemia): > 100 µM
- GI50 (OVCAR-8 ovarian): > 100 µM
- TGI (OVCAR-8 ovarian): > 100 µM
- GI50 (MOLT-4 leukemia): > 100 µM
- TGI (MOLT-4 leukemia): > 100 µM
- GI50 (MALME-3M melanoma): > 100 µM
- TGI (MALME-3M melanoma): > 100 µM
- GI50 (T-47D breast): > 100 µM
- TGI (T-47D breast): > 100 µM
- GI50 (BT-549 breast): > 100 µM
- TGI (BT-549 breast): > 100 µM
- GI50 (UACC-62 melanoma): > 100 µM
- TGI (UACC-62 melanoma): > 100 µM
- GI50 (HCC-2998 colon): > 100 µM
- TGI (HCC-2998 colon): > 100 µM
- GI50 (MDA-MB-231 breast): > 100 µM
- TGI (MDA-MB-231 breast): > 100 µM
- GI50 (RPMI-8226 leukemia): > 100 µM
- TGI (RPMI-8226 leukemia): > 100 µM
- GI50 (SF-268 CNS): > 100 µM
- TGI (SF-268 CNS): > 100 µM
- GI50 (LOX IMVI melanoma): > 100 µM
- TGI (LOX IMVI melanoma): > 100 µM
- GI50 (HCT-116 colon): > 100 µM
- TGI (HCT-116 colon): > 100 µM
- GI50 (MDA-MB-435): > 100 µM
- TGI (MDA-MB-435): > 100 µM
- GI50 (A498 renal): > 100 µM
- TGI (A498 renal): > 100 µM
- GI50 (RXF 393 renal): > 100 µM
- TGI (RXF 393 renal): > 100 µM
- GI50 (TK-10 renal): > 100 µM
- TGI (TK-10 renal): > 100 µM
- GI50 (DU-145 prostate): > 100 µM
- TGI (DU-145 prostate): > 100 µM
- GI50 (OVCAR-3 ovarian): > 100 µM
- TGI (OVCAR-3 ovarian): > 100 µM
- GI50 (A549 NSCLC): > 100 µM
- TGI (A549 NSCLC): > 100 µM
- GI50 (SK-MEL-28 melanoma): > 100 µM
- TGI (SK-MEL-28 melanoma): > 100 µM
- GI50 (SF-295 CNS): > 100 µM
- TGI (SF-295 CNS): > 100 µM
- GI50 (HOP-92 NSCLC): > 100 µM
- TGI (HOP-92 NSCLC): > 100 µM
- GI50 (MCF7 breast): > 100 µM
- TGI (MCF7 breast): > 100 µM
- GI50 (CCRF-CEM leukemia): > 100 µM
- TGI (CCRF-CEM leukemia): > 100 µM
- GI50 (PC-3 prostate): > 100 µM
- TGI (PC-3 prostate): > 100 µM
- GI50 (IGROV1 ovarian): > 100 µM
- TGI (IGROV1 ovarian): > 100 µM
- GI50 (NCI-H522 lung): > 100 µM
- TGI (NCI-H522 lung): > 100 µM
- GI50 (SN12C renal): > 100 µM
- TGI (SN12C renal): > 100 µM
- GI50 (SNB-19 CNS): > 100 µM
- TGI (SNB-19 CNS): > 100 µM
